Structures can show the parent of a compound that is named as a salt.

Data set [1] addresses T1, dopamine D4 receptors in cloned human dopamine receptor subtype 4.2 membranes (Homo sapiens, UniProt P21917, DEL265-296).
T1 construct: purchased Dupharma A/S, Denmark CRM-016
T1 sequence (P21917 with tags, fused parts or gaps DEL265-296): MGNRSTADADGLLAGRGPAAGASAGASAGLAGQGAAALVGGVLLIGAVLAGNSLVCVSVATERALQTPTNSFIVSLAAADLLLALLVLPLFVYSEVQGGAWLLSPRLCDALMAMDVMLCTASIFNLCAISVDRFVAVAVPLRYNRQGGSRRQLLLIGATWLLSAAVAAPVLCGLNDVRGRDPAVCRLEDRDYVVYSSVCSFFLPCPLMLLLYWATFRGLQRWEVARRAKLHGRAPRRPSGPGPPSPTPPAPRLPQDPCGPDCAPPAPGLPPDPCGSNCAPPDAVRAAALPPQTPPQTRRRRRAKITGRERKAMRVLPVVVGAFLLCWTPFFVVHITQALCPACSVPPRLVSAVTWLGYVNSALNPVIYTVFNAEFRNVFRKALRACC
Description: 3H-YM-09151-2 binding. Particulars: 3H-YM-09151-2, cloned human D4.2 membranes. On the procedure:
By this method the inhibition by drugs of the binding of the dopamine D4 antagonist ^3H-YM-09151-2 to dopamine D4 receptors in cloned human dopamine receptor subtype 4.2 membranes is determined in vitro. Accordingly, this is a test for affinity for dopamine D4 receptors. The test is performed using a preparation of cloned dopamine D4 cell membranes CRM-016®, Dupharma A/S, Denmark, in accordance with the product specifications.

As to `c1ccc2c(c1)CCC2CCN1CCN(c2ccc3c(c2)OCO3)CC1` (centres unmarked) (as salt: fumarate) [Compound 6a, 1-[2-[4-(3,4-Methylenedioxyphenyl)-piperazine-1-yl]ethyl]-indane], the melting point lay within 191 to 192 °C.
Same read-out and setting: then `c1ccc2c(c1)CC(CN1CCN(c3ccc4c(c3)OCO4)CC1)C2` (as salt: oxalate) [Compound 6b], with 197 to 199 °C.
In data set [1], `c1ccc2c(c1)CCC2CN1CCN(c2ccc3c(c2)OCO3)CC1` (centres unmarked) [Compound 4a] gave an IC50 of 8.8 nM.
`Brc1ccc2c(c1)C(CN1CCN(c3ccc4c(c3)OCO4)CC1)CC2` (centres unmarked) [Compound 4b]: the “% inhibition of binding at 50 nM” value in data set [1] (at 50 nM) stood at 33% at 50 nM.
Take `c1ccc2c(c1)CCC2CCN1CCN(c2ccc3c(c2)OCO3)CC1` (centres unmarked) [Compound 6a, 1-[2-[4-(3,4-Methylenedioxyphenyl)-piperazine-1-yl]ethyl]-indane]: the IC50 in data set [1] was determined as 5.6 nM.
`c1ccc2c(c1)CC(CN1CCN(c3ccc4c(c3)OCO4)CC1)C2` [Compound 6b]: the IC50 in data set [1] worked out at 1.8 nM.
In turn, `O=C(CCCN1CCN(c2ccc3c(c2)OCO3)CC1)C1CNc2ccccc21` (centres unmarked) [Compound 9a, 2,3-Dihydro-3-[4-[4[(3,4-methylenedioxyphenyl)piperazine-1-yl]butyl-1-oxo]]-1H-indole] yielded an IC50 in data set [1] of 4.3 nM.
`CC(=O)N1CC(CCN2CCN(c3ccc4c(c3)OCO4)CC2)c2ccccc21` (centres unmarked) [Compound 9b, 1-Acetyl-2,3-dihydro-3-[2-[4-[(3,4-methylenedioxyphenyl)piperazine-1-yl]ethyl]]1H-indole] displayed a concentration for half-maximal inhibition (IC50) in data set [1] of 3.7 nM.

By melting point is commonly meant the temperature of the solid-liquid transition. One may read the IC50 as the concentration needed to halve the response being measured. Read a high IC50 as lower potency.

These data come from patent publication US6436940B1, “Indane or dihydroindole derivatives” (H. Lundbeck A/S, priority 1996, dated 2002).
